Laboratory results published in patent publication US12240857B2 (priority 2017, dated 2025).
Several values for one entry are separate records, joined by “and”; a condition that tells them apart may be missing. Identical values can stand only once. Like-named read-outs stand apart in the source and are kept apart here.

How the values were obtained:
[1] = in vivo
in vitro [2] = conditions: monkey, microsomes
[3] = test system: BDBV mucin-domain-deleted glycoprotein pseudotyped VSV; test: microbe, parasite or virus in culture; format: cell-based, Bundibugyo ebolavirus; conditions: Vesicular stomatitis virus, Vero
in vitro [4] = conditions: human
EBOV (Mayinga) [5] = test: microbe, parasite or virus in culture; format: cell-based, Zaire ebolavirus; conditions: for EC50: Zaire ebolavirus, Vero
[6] = test system: CYP1A2, CYP2B6, CYP2C9, CYP2C19, CYP2D6; test: in vitro; conditions: human
[7] = test system: parent VSV virus expressing the native VSV glycoprotein; test: microbe, parasite or virus in culture; format: cell-based; conditions: Vesicular stomatitis virus, Vero, read-out: EC50 Pseudotype Assays VSV
physchem = conditions: pH 7, aqueous buffer, kinetic from dmso stock
[8] = test system: human Cyp-p450 enzymes 1A2, 2B6, 2C9, 2C19, 2D6
wild-type Sudan Gulu [9] = test system: wild-type Sudan Gulu
[10] = test system: full-length Ebola Zaire GP pseudotyped VSV (EBOV_FL); test: microbe, parasite or virus in culture; format: cell-based; conditions: Zaire ebolavirus, read-out: EC50 Pseudotype Assays EBOV_FL
wild-type Ebola Zaire [11] = test system: wild-type Ebola Zaire
[12] = test system: EBOV mucin-domain-deleted glycoprotein pseudotyped VSV; test: microbe, parasite or virus in culture; format: cell-based, Zaire ebolavirus; conditions: Zaire ebolavirus, Vero
in vitro [13] = conditions: mouse, microsomes
[14] = test system: full-length SUDV GP pseudotyped VSV; test: microbe, parasite or virus in culture; format: cell-based, Sudan ebolavirus; conditions: Vesicular stomatitis virus, read-out: EC50 Pseudotype Assays SUDV
wild-type Sudan Gulu [15] = test: microbe, parasite or virus in culture; conditions: Sudan ebolavirus, HeLa, read-out: Sudan Gulu EC50
hERG ion channel = hERG ion channel (Homo sapiens, UniProt Q12809); test: biochemical
in vitro [16] = conditions: human, Caco-2
in vitro [17] = conditions: human, microsomes
in vivo = conditions: male, CD-1, mouse
in vitro [18] = conditions: African green monkey
P-gp = P-gp (Homo sapiens, UniProt P08183)
in vitro [19] = conditions: mouse
EBOV (Mayinga) [20] = test: microbe, parasite or virus in culture; format: cell-based, Zaire ebolavirus; conditions: for EC90: Zaire ebolavirus
human Cyp-p450 3A4 = human Cyp-p450 3A4 (Homo sapiens, UniProt P08684); test: biochemical
[21] = test system: full-length LASV glycoprotein pseudotyped VSV; test: microbe, parasite or virus in culture; format: cell-based, Lassa virus; conditions: Vesicular stomatitis virus, read-out: EC50 Pseudotype Assays LASV
wild-type Ebola Zaire [22] = test: microbe, parasite or virus in culture; conditions: Zaire ebolavirus, HeLa, read-out: Ebola Zaire EC50
[23] = test system: full-length Marburgvirus (MARV) GP pseudotyped VSV; test: microbe, parasite or virus in culture; format: cell-based, Marburg marburgvirus; conditions: Orthomarburgvirus, read-out: EC50 Pseudotype Assays MARV
native EBOV virus = conditions: read-out: published EC50 against native EBOV virus; cited from earlier work
[24] = human, in vivo; cited from earlier work
Ebola virus infection = conditions: human, in vivo; cited from earlier work
[25] = read-out: EC50 Pseudotype Assays BDBV
[26] = read-out: EC50 Pseudotype Assays EBOV

human Cyp-p450 3A4, sequence (P08684 whole entry): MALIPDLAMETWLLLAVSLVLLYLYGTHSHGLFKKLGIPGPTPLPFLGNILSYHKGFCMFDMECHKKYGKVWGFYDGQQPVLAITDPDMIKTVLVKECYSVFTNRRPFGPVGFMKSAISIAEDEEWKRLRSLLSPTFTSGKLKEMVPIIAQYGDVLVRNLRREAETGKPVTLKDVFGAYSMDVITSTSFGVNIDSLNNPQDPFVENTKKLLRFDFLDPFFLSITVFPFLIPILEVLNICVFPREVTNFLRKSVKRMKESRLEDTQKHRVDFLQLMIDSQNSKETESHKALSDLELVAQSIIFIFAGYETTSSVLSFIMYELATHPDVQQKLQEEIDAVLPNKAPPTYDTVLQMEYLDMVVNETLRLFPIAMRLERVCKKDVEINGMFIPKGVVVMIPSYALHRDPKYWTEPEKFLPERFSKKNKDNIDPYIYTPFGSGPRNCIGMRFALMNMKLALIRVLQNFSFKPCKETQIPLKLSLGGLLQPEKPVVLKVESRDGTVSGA
P-gp, sequence (P08183 whole entry): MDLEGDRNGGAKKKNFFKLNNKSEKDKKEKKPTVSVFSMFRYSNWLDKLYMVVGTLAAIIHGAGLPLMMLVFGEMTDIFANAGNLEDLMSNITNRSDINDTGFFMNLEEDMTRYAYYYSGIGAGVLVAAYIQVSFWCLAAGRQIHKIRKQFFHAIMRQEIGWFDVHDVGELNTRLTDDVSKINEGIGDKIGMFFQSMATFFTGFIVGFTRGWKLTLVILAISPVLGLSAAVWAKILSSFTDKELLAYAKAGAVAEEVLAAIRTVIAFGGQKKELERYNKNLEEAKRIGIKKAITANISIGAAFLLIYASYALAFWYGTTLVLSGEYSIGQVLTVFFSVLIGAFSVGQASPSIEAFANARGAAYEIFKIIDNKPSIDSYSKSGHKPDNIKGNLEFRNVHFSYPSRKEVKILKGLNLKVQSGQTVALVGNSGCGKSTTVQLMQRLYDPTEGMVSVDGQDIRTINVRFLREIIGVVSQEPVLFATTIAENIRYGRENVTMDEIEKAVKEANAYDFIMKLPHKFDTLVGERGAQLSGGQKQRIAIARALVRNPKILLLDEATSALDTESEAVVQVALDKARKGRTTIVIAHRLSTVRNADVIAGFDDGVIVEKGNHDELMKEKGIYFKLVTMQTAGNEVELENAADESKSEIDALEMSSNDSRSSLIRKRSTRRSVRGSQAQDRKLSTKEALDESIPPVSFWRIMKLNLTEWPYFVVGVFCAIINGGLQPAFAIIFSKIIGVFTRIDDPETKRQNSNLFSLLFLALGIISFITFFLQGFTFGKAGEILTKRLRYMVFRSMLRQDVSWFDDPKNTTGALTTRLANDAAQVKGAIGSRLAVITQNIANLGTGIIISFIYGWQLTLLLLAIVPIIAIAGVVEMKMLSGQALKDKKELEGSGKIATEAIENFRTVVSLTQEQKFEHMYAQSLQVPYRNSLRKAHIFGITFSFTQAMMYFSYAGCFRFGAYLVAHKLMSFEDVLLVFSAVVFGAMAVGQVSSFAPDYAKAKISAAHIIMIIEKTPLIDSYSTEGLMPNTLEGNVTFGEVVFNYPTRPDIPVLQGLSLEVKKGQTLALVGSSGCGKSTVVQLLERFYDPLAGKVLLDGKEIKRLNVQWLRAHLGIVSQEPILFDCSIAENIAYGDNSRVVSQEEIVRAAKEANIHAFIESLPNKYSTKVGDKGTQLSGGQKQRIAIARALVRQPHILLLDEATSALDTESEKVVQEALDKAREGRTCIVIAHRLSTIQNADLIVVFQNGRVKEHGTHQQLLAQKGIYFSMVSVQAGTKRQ
hERG ion channel, sequence (Q12809 whole entry): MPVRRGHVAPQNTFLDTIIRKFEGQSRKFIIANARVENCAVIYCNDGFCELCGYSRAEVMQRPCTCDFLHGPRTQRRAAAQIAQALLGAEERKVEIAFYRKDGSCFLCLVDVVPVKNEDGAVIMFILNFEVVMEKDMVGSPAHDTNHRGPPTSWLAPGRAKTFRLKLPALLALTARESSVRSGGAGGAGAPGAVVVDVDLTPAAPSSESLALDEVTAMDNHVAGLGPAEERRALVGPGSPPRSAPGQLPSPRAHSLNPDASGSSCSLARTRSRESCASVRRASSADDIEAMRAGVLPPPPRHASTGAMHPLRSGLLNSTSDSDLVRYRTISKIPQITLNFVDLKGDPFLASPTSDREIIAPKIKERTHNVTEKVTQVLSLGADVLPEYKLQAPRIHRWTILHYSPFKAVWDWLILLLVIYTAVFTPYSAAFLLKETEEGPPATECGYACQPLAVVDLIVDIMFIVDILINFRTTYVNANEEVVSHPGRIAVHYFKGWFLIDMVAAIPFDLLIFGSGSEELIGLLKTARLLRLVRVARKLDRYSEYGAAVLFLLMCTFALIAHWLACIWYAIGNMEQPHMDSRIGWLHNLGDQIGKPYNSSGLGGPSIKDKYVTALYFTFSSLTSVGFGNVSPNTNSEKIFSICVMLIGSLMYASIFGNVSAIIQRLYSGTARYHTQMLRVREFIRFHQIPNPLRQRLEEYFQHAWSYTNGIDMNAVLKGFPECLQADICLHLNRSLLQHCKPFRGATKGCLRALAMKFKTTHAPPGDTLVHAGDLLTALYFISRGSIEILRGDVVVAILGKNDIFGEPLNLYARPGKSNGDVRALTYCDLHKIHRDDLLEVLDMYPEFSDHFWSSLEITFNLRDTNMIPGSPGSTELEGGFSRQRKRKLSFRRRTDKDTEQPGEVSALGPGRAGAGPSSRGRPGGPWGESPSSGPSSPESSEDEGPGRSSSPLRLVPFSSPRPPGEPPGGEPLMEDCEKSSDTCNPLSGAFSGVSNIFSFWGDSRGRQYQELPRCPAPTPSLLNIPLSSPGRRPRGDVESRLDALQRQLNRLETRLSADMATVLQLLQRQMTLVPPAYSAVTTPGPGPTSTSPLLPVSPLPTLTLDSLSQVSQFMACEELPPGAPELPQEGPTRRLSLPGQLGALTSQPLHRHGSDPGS

Structure (SMILES): CC12CC3CC(C(=O)N[C@H]4CC[C@H](N)CC4)(C1)CC(c1ccccc1)(C3)C2.Cl (stereo partly shown) [Example A78]
- F ([1]; male, CD-1, mouse): 72%
- CI ([1]; male, CD-1, mouse, iv, 1 mg/kg): 29.72 mL/min/kg
- clearance ([1]; mouse): less than hepatic blood flow
- half-life (in vitro [2]): > 2 h
- EC50 ([3]; read-out: EC50 BDBV): 90 nM
- EC50 [3, 25]: 90 nM
- fraction unbound (in vitro [4]): 0.025
- SI50 (CC50/EC50) (EBOV (Mayinga) [5]): 41.5
- EC50 (EBOV (Mayinga) [5]): 1100 nM
- IC50 [6]: ≥ 90000 nM
- EC50 [7]: > 10000 nM
- solubility (physchem): > 500 µM
- Cyp-p450 inhibition IC50, 1A2, 2B6, 2C9, 2C19 [8]: not an inhibitor
- Sudan Gulu SI (CC50/EC50) (wild-type Sudan Gulu [9]): 264.3
- EC50 [10]: 50 nM
- Ebola Zaire SI (CC50/EC50) (wild-type Ebola Zaire [11]): 268.2
- EC50 ([12]; read-out: EC50 EBOV): 20 nM
- EC50 [12, 26]: 20 nM
- half-life (in vitro [13]): 4.45 h
- EC50 [14]: 210 nM
- EC50 (wild-type Sudan Gulu [15]): 210 nM
- IC50 (hERG ion channel): > 10000 nM
- Papp A→B (in vitro [16]): 3.61 ×10⁻⁶ cm/s
- Papp B→A (in vitro [16]): 15.6 ×10⁻⁶ cm/s
- efflux ratio (in vitro [16]): 4.32
- half-life (in vitro [17]): 7.7 h
- Vd (in vivo): 14 L/kg
- half-life (in vivo): 7.1 h
- half-life (in vivo; 10 mg/kg): 7 h
- AUC(0-inf) (in vivo; iv, 1 mg/kg): 561 ng·h/mL
- AUC(0-t) (in vivo; iv, 1 mg/kg): 539 ± 23 ng·h/mL
- Cmax (in vivo; iv, 1 mg/kg): 129 ± 40 ng/mL
- Tmax (in vivo; iv, 1 mg/kg): 0.083 h
- Vd (in vivo; iv, 1 mg/kg): 13.9 L/kg
- half-life (in vivo; iv, 1 mg/kg): 5.4 h
- AUC(0-inf) (in vivo; po, 10 mg/kg): 4040 ng·h/mL
- AUC(0-t) (in vivo; po, 10 mg/kg): 3590 ± 576 ng·h/mL
- Cmax (in vivo; po, 10 mg/kg): 239 ± 46 ng/mL
- Tmax (in vivo; po, 10 mg/kg): 6 h
- bioavailability (in vivo; po, 10 mg/kg): 72%
- half-life (in vivo; po, 10 mg/kg): 7.1 h
- CC50 (in vitro [18]; Cytotox CC50): > 10000 nM
- P-gp substrate ID Caco-2 Permeability (+Verapamil) Paap Mean A > B (P-gp): 8.47 10^−6 cm s^−1
- P-gp substrate ID Caco-2 Permeability (+Verapamil) Paap Mean B > A (P-gp): 7.45 10^−6 cm s^−1
- fraction unbound (in vitro [19]): 0.014
- SI90 (CC50/EC90) (EBOV (Mayinga) [20]): 8.2
- EC90 (EBOV (Mayinga) [20]): 5600 nM
- IC50 (human Cyp-p450 3A4; Cyp-p450 inhibition IC50, 3A4 (Midazolam)): > 100000 nM
- IC50 (human Cyp-p450 3A4; Cyp-p450 inhibition IC50, 3A4 (Testosterone)): ~28000 nM and 28000 nM
- EC50 [21]: > 10000 nM
- EC50 (wild-type Ebola Zaire [22]): 210 nM
- EC50 [23]: 3500 nM

Structure (SMILES): CCC12CC3CC(C(=O)NC4CCNCC4)(C1)CC(c1ccccc1)(C3)C2 (stereo not shown) [Example A80]
- half-life (in vitro [2]): 1.48 h
- EC50 ([3]; read-out: EC50 BDBV): 50 nM
- EC50 [3, 25]: 60 nM
- SI50 (CC50/EC50) (EBOV (Mayinga) [5]): 95.6
- EC50 (EBOV (Mayinga) [5]): 890 nM
- EC50 [7]: > 10000 nM
- Sudan Gulu SI (CC50/EC50) (wild-type Sudan Gulu [9]): 130
- EC50 [10]: 40 nM
- Ebola Zaire SI (CC50/EC50) (wild-type Ebola Zaire [11]): 137
- EC50 ([12]; read-out: EC50 EBOV): 10 nM
- EC50 [12, 26]: 20 nM
- half-life (in vitro [13]): > 2 h
- EC50 [14]: 400 nM
- EC50 (wild-type Sudan Gulu [15]): 140 nM
- half-life (in vitro [17]): 1.72 h
- CC50 (in vitro [18]; CC50): 10000 nM
- CC50 (in vitro [18]; Cytotox CC50): > 10000 nM
- SI90 (CC50/EC90) (EBOV (Mayinga) [20]): 9.6
- EC90 (EBOV (Mayinga) [20]): 8900 nM
- EC50 [21]: > 10000 nM
- EC50 (wild-type Ebola Zaire [22]): 130 nM
- EC50 [23]: 1100 nM

Structure (SMILES): NC(=O)c1nc(F)c[nH]c1=O [favipiravir]
- EC50 (native EBOV virus): 67000 nM
- half-life in humans [24]: 1 to 4 h
- SI90 (CC50/EC90) (EBOV (Mayinga) [20]): 3
- EC90 (EBOV (Mayinga) [20]): 333000 nM
- drop in viral load (Ebola virus infection): 3-4 log
